Two compounds from patent EP0546474A1, “Pseurotin F1/F2, new metabolites from Aspergillus fumigatus, process for their preparation and their use as apomorphine antagonists” (HOECHST AKTIENGESELLSCHAFT, priority 1991, dated 1993) can be followed below.

One series concerns Mäusen. Put plainly: Apomorphine antagonism: inhibition of apomorphine-induced climbing in mice. The class given is in vivo. The settings on record: compound given 30 min (i.p.) or 60 min (p.o.) before apomorphine. The procedure:
Die Wirkung der Verbindungen der Formeln la und Ib als Apomorphin Antagonisten wird an Mäusen getestet. Hierzu wird zunächst Apomorphin als 1 %ige Lösung (Verdünnungsmittel:Tylose, z.B. Methocel, Hoechst AG, Frankfurt, Deutschland) einmalig […] injiziert. Die Dosis ist so gewählt, daß sie bei 95 % der Mäuse für ca. 30 Minuten eine anhaltende Klettertätigkeit auslöst (1,5 mg Apomorphin/kg Maus; subcutane Injektion). Tiere, die noch vor der Apomorphingabe eine konstante Klettertätigkeit aufweisen, werden nicht im Test berücksichtigt. Pseurotin F1 oder F2 wird 30 bzw. 60 Min. vor Apomorphin appliziert (i.p. bzw. p.o.). Es wird viermal abgelesen: unmittelbar vor sowie 10, 20 und 30 Min nach Apomorphin-Injektion. Dabei wird das Kletterverhalten pro Maus beurteilt:
Testkriterium ist, ob eine Hemmung des durch Apomorphin verursachten Kletterns eintritt.

A short description of series [1]: Solubility in organic solvents. In kind it is physicochemical. The settings on record: in CH2C12, CHCl3, Essigsäureethylester, Aceton, Ethanol and Isopropanol; isolated as amorphous solid. From the text:
Die Pseurotine F1 /F2 werden als amorpher Feststoff isoliert und sind z.B. löslich in CH2C12, CHCl3, Essigsäureethylester, Aceton, Ethanol und Isopropanol. • FAB-MS: m/e = 418 (37 %, [M + H]^+), 400 (12 %) 382 (14 %) • Pseurotin F1: Rf = 0,29; Ethylacetat-H/Heptan (2 : 1) • Pseurotin F2: Rf = 0,20; Ethylacetat-H/Heptan (2:1) (dünnschichtchromatographisch aufgetrennt) Molmasse: 417, 12 (C21 H23NO8)

Series [2] in a line: Stability in the solid state and in solution. In kind it is physicochemical. The settings on record: solid state and solutions in the pH range between 3 and 8, in particular 5 and 7. From the text: Die Verbindungen der Formeln la und Ib sind im festen Zustand und in Lösungen im pH-Bereich zwischen 3 und 8, insbesondere 5 und 7, stabil und lassen sich damit in übliche galenische Zubereitungen einarbeiten.

The mark [3] stands for this setting: 10 min after apomorphine injection (1,5 mg/kg, s.c.), observed in the majority of treated mice.
[4] abbreviates: 20 min after apomorphine injection (1,5 mg/kg, s.c.), observed in nearly all animals.

For `CC/C=C\[C@H](O)[C@H](O)C1=C(C)C(=O)[C@]2(O1)C(=O)N[C@](O)(C(=O)c1ccccc1)[C@@H]2O` [Pseurotin F1], the “Kletterverhalten pro Maus (Hemmung des durch Apomorphin verursachten Kletterns)” value is recorded as “nur noch 1 oder 2 Pfoten an der Wand” with Mäusen (setting [3]) and “deutliche Symptome in Form der Kletterhemmung (4 Pfoten am Boden)” with Mäusen (setting [4]). Moreover, in series [1], the Löslichkeit result is on record as “löslich”. Also, the Stabilität result in series [2] is reported as “stabil”.

With `CC/C=C\[C@H](O)[C@H](O)C1=C(C)C(=O)[C@]2(O1)C(=O)N[C@@](O)(C(=O)c1ccccc1)[C@@H]2O` [Pseurotin F2], the “Kletterverhalten pro Maus (Hemmung des durch Apomorphin verursachten Kletterns)” value with Mäusen (setting [3]) is “nur noch 1 oder 2 Pfoten an der Wand”; in the series with Mäusen (setting [4]), “deutliche Symptome in Form der Kletterhemmung (4 Pfoten am Boden)”. Further, in series [1], the Löslichkeit entry is “löslich”. Further, in series [2], the Stabilität entry was “stabil”.
